Source: ChEMBL document CHEMBL1141704, “Substituted ajoenes as novel anti-cancer agents” (Bioorg Med Chem Lett, 2008)

Test system: Fibroblast
Experiment: Anticancer activity against cobalt radiation CT-1 transformed fibroblasts
Format: functional, cell-based

SMILES | IC50
C=CCSS/C=C/C[S+]([O-])CCC (stereo not drawn) | 26.7 µM
C=CCSS/C=C/C[S+]([O-])C(C)(C)C (stereo not drawn) | 33.1 µM
C=CCSS/C=C\C[S+]([O-])CCCO (stereo not drawn) | 22.8 µM
C=CCSS/C=C/C[S+]([O-])CCCOCc1ccc(OC)cc1 (stereo not drawn) | 23.5 µM
C=CCSS/C=C\C[S+]([O-])CCCOCc1ccc(OC)cc1 (stereo not drawn) | 21.7 µM
C=CCSS/C=C/C[S+]([O-])CCCO (stereo not drawn) | 23.1 µM
C=CCSS/C=C/C[S+]([O-])Cc1ccc(OC)cc1 (stereo not drawn) | 11.2 µM
C=CCSS/C=C\C[S+]([O-])CCCN1C(=O)c2ccccc2C1=O (stereo not drawn) | 34.6 µM
C=CCSS/C=C/C[S+]([O-])Cc1ccccc1 (stereo not drawn) | 16.6 µM
C=CCSS/C=C\C[S+]([O-])CCC (stereo not drawn) | 17 µM
C=CCSS/C=C/C[S+]([O-])CCCN1C(=O)c2ccccc2C1=O (stereo not drawn) | 95.9 µM
C=CCSS/C=C\C[S+]([O-])CC=C (stereo not drawn) [(Z)-Ajoene] | 15.5 µM
C=CCSS/C=C/C[S+]([O-])CC=C (stereo not drawn) [AJOENE] | 17.6 µM
